{"source": "patent US8399676B2", "about": "“Piperidine derivatives” (Hoffman-La Roche Inc., priority 2009, dated 2013)", "note": "pIC50: −log10 of the molar value. Structures can show the parent of a compound that is named as a salt.", "data": [{"biological_target": "T1, human HSL (Homo sapiens, UniProt Q05469)", "T1 construct": "generate a full length human HSL ORF with a 3′-His6 tag; His6 (C); made in house; host or cells: High 5 insect cells (baculovirus, pFast-BAC)", "T1 sequence (Q05469 1-1076)": "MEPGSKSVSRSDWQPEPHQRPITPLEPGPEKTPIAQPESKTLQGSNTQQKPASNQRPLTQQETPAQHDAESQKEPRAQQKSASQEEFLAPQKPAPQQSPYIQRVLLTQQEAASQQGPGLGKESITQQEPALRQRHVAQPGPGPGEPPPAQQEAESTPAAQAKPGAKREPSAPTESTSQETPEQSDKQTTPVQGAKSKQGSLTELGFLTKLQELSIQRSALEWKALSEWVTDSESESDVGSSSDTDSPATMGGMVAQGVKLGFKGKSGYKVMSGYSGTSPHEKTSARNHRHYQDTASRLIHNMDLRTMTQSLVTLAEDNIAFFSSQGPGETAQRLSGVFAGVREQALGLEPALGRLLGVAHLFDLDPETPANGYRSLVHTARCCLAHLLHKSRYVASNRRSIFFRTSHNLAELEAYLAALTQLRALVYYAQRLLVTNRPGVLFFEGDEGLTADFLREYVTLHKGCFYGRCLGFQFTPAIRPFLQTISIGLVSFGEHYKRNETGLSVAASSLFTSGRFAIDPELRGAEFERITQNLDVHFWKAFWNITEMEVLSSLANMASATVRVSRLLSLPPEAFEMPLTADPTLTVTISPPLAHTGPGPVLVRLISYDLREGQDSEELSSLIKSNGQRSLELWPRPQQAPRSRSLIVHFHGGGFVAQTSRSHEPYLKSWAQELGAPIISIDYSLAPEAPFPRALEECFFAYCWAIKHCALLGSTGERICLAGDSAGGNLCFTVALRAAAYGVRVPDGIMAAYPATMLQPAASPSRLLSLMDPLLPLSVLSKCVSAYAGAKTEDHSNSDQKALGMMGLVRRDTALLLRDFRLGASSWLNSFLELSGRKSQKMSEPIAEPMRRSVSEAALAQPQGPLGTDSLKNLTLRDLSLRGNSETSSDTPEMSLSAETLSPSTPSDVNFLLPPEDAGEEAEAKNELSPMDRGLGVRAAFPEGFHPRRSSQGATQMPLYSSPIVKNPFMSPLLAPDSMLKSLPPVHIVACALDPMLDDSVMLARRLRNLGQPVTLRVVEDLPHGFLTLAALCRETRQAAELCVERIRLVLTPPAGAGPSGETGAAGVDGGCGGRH", "experiment": "Human Hormone-Sensitive Lipase (HSL) enzyme inhibition assay (colorimetric, DMPT substrate)", "type": "biochemical", "settings": "read-out: HSL hum IC50", "procedure,_shortened": "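Full-length human HSL carrying a C-terminal His6 tag was expressed in High 5 insect cells via baculovirus and purified on Ni-NTA. Compounds from 3-fold DMSO series were mixed with 1.5 mM DMPT substrate suspension in 100 mM MOPS pH 7.2 with 0.2 mg/ml fatty acid-free BSA, then enzyme (15 ug/ml) was added for 20 minutes at 37 °C. Released thiol was detected with DTNB plus SDS/Triton X-100 (15 minutes, room temperature) at 405 nm.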", "values": [{"molecule": "CCc1ccc(NC(=O)C2(N)CCN(S(=O)(=O)c3c(F)cccc3F)CC2)cc1", "note": "[Example 142, 4-Amino-1-(2,6-difluoro-benzenesulfonyl)-piperidine-4-carboxylic acid (4-ethyl-phenyl)-amide]", "pIC50": 7.00}, {"molecule": "CC(C)c1ccc(NC(=O)C2(O)CCN(Cc3ccccc3)CC2)cc1", "note": "[Example 1, 1-Benzyl-4-hydroxy-piperidine-4-carboxylic acid (4-isopropyl-phenyl)-amide]", "pIC50": 6.34}, {"molecule": "CCN(C(=O)C1(O)CCN(S(=O)(=O)c2ccccc2C)CC1)c1ccc(OC(F)(F)F)cc1", "note": "[Example 74, 4-Hydroxy-1-(toluene-2-sulfonyl)-piperidine-4-carboxylic acid ethyl-(4-trifluoromethoxy-phenyl)-amide]", "pIC50": 6.06}, {"molecule": "O=C(Nc1ccc(OC(F)(F)F)cc1)C1(O)CCN(Cc2ccccc2F)CC1", "note": "[Example 58, 1-(2-Fluoro-benzyl)-4-hydroxy-piperidine-4-carboxylic acid (4-trifluoromethoxy-phenyl)-amide]", "pIC50": 6.72}, {"molecule": "CC(C)(C)c1ccc(NC(=O)C2(N)CCN(C(=O)Nc3ccc(OC(F)(F)F)cc3)CC2)cc1", "note": "[Example 86, 4-Amino-piperidine-1,4-dicarboxylic acid 4-[(4-tert-butyl-phenyl)-amide]1-[(4-trifluoromethoxy-phenyl)-amide]; hydrochloride]", "pIC50": 6.85}, {"molecule": "CC(C)c1ccc(NC(=O)C2(N)CCN(C(=O)c3ccc(C(F)(F)F)nc3)CC2)cc1", "note": "[Example 130, 4-Amino-1-(6-trifluoromethyl-pyridine-3-carbonyl)-piperidine-4-carboxylic acid (4-isopropyl-phenyl)-amide]", "pIC50": 6.28}, {"molecule": "CC(C)c1ccc(NC(=O)C2(N)CCN(Cc3ccccc3)CC2)cc1", "note": "[Example 122, 4-Amino-1-benzyl-piperidine-4-carboxylic acid (4-isopropyl-phenyl)-amide]", "pIC50": 6.89}, {"molecule": "CCc1ccc(NC(=O)C2(N)CCN(Cc3ccccc3F)CC2)cc1", "note": "[Example 153, 4-Amino-1-(2-fluoro-benzyl)-piperidine-4-carboxylic acid (4-ethyl-phenyl)-amide]", "pIC50": 6.77}, {"molecule": "CC(C)CC(=O)N1CCC(N)(C(=O)Nc2ccc(C(C)C)cc2)CC1", "note": "[Example 128, 4-Amino-1-(3-methyl-butyryl)-piperidine-4-carboxylic acid (4-isopropyl-phenyl)-amide]", "pIC50": 6.18}, {"molecule": "CN(C(=O)C1(O)CCN(Cc2ccccc2Cl)CC1)c1ccc(OC(F)(F)F)cc1", "note": "[Example 71, 1-(2-Chloro-benzyl)-4-hydroxy-piperidine-4-carboxylic acid methyl-(4-trifluoromethoxy-phenyl)-amide]", "pIC50": 7.40}, {"molecule": "CC(C)c1ccc(NC(=O)C2(N)CCN(Cc3ccccc3OC(F)(F)F)CC2)cc1", "note": "[Example 113, 4-Amino-1-(2-trifluoromethoxy-benzyl)-piperidine-4-carboxylic acid (4-isopropyl-phenyl)-amide; hydrochloride]", "pIC50": 7.10}, {"molecule": "CCCCS(=O)(=O)N1CCC(N)(C(=O)Nc2ccc(CC)cc2)CC1", "note": "[Example 143, 4-Amino-1-(butane-1-sulfonyl)-piperidine-4-carboxylic acid (4-ethyl-phenyl)-amide]", "pIC50": 6.28}, {"molecule": "NC1(C(=O)Nc2cccc(C(F)(F)F)c2)CCN(S(=O)(=O)c2ccccc2Cl)CC1", "note": "[Example 91, 4-Amino-1-(2-chloro-benzenesulfonyl)-piperidine-4-carboxylic acid (3-trifluoromethyl-phenyl)-amide]", "pIC50": 6.15}, {"molecule": "CCc1ccc(NC(=O)C2(N)CCN(S(=O)(=O)c3ccc(OC(F)(F)F)cc3)CC2)cc1", "note": "[Example 138, 4-Amino-1-(4-trifluoromethoxy-benzenesulfonyl)-piperidine-4-carboxylic acid (4-ethyl-phenyl)-amide]", "pIC50": 6.51}, {"molecule": "CC(C)CS(=O)(=O)N1CCC(O)(C(=O)Nc2ccc(OC(F)(F)F)cc2)CC1", "note": "[Example 54, 4-Hydroxy-1-(2-methyl-propane-1-sulfonyl)-piperidine-4-carboxylic acid (4-trifluoromethoxy-phenyl)-amide]", "pIC50": 6.18}, {"molecule": "NC1(C(=O)Nc2ccc(F)cc2)CCN(S(=O)(=O)c2ccccc2Cl)CC1", "note": "[Example 94, 4-Amino-1-(2-chloro-benzenesulfonyl)-piperidine-4-carboxylic acid (4-fluoro-phenyl)-amide]", "pIC50": 6.11}, {"molecule": "Cc1ccc(S(=O)(=O)N2CCC(O)(C(=O)Nc3ccc(OC(C)C)cc3)CC2)cc1", "note": "[Example 12, 4-Hydroxy-1-(toluene-4-sulfonyl)-piperidine-4-carboxylic acid (4-isopropoxy-phenyl)-amide]", "pIC50": 6.07}, {"molecule": "NC1(C(=O)Nc2ccc(OCC(F)(F)F)cc2)CCN(S(=O)(=O)c2ccccc2Cl)CC1", "note": "[Example 105, 4-Amino-1-(2-chloro-benzenesulfonyl)-piperidine-4-carboxylic acid [4-(2,2,2-trifluoro-ethoxy)-phenyl]-amide]", "pIC50": 6.96}, {"molecule": "CC(C)(C)c1ccc(NC(=O)C2(O)CCN(C(=O)c3cc(F)ccc3F)CC2)cc1", "note": "[Example 43, 1-(2,5-Difluoro-benzoyl)-4-hydroxy-piperidine-4-carboxylic acid (4-tert-butyl-phenyl)-amide]", "pIC50": 6.19}, {"molecule": "CC(C)c1ccc(NC(=O)C2(N)CCN(C(=O)c3ccccc3Cl)CC2)cc1", "note": "[Example 124, 4-Amino-1-(2-chloro-benzoyl)-piperidine-4-carboxylic acid (4-isopropyl-phenyl)-amide]", "pIC50": 6.64}, {"molecule": "CC(C)(C)c1ccc(NC(=O)C2(O)CCN(C(=O)c3ccc(F)cc3C(F)(F)F)CC2)cc1", "note": "[Example 42, 1-(4-Fluoro-2-trifluoromethyl-benzoyl)-4-hydroxy-piperidine-4-carboxylic acid (4-tert-butyl-phenyl)-amide]", "pIC50": 6.22}, {"molecule": "CNC1(C(=O)Nc2ccc(OC(F)(F)F)cc2)CCN(S(=O)(=O)c2ccc(C)cc2)CC1", "note": "[Example 160, 4-Methylamino-1-(toluene-4-sulfonyl)-piperidine-4-carboxylic acid (4-trifluoromethoxy-phenyl)-amide]", "pIC50": 7.00}, {"molecule": "CCc1ccc(NC(=O)C2(N)CCN(S(=O)(=O)c3ccccc3F)CC2)cc1", "note": "[Example 134, 4-Amino-1-(2-fluoro-benzenesulfonyl)-piperidine-4-carboxylic acid (4-ethyl-phenyl)-amide]", "pIC50": 7.22}, {"molecule": "CC(C)c1ccc(CN2CCC(N)(C(=O)Nc3ccc(C(C)C)cc3)CC2)cc1", "note": "[Example 115, 4-Amino-1-(4-isopropyl-benzyl)-piperidine-4-carboxylic acid (4-isopropyl-phenyl)-amide; hydrochloride]", "pIC50": 6.64}, {"molecule": "CC(C)c1ccc(NC(=O)C2(N)CCN(S(=O)(=O)c3ccccc3Cl)CC2)cc1", "note": "[Example 116, 4-Amino-1-(2-chloro-benzenesulfonyl)-piperidine-4-carboxylic acid (4-isopropyl-phenyl)-amide; hydrochloride]", "pIC50": 7.40}, {"molecule": "O=C(Nc1ccc(OC(F)(F)F)cc1)C1(O)CCN(Cc2ccccc2Cl)CC1", "note": "[Example 63, 1-(2-Chloro-benzyl)-4-hydroxy-piperidine-4-carboxylic acid (4-trifluoromethoxy-phenyl)-amide]", "pIC50": 6.74}, {"molecule": "NC1(C(=O)Nc2ccc(OC(F)(F)F)cc2)CCN(S(=O)(=O)c2ccccc2Cl)CC1", "note": "[Example 103, 4-Amino-1-(2-chloro-benzenesulfonyl)-piperidine-4-carboxylic acid (4-trifluoromethoxy-phenyl)-amide]", "pIC50": 7.52}]}]}
